Laboratory results reported in PMC5572076 (Xenobiotica; the fate of foreign compounds in biological …, 2016).
“Also recorded” adds a separate entry of the source. Where two headings read alike, the source gives them in different places.

Columns and labels:
[1] = mice, cited from earlier work
Human MRP4 = molecular target: T1, Human MRP4 (Homo sapiens, UniProt O15439); test: Vesicular uptake assay, MRP4 membrane vesicles
T1 sequence (O15439 1-1325): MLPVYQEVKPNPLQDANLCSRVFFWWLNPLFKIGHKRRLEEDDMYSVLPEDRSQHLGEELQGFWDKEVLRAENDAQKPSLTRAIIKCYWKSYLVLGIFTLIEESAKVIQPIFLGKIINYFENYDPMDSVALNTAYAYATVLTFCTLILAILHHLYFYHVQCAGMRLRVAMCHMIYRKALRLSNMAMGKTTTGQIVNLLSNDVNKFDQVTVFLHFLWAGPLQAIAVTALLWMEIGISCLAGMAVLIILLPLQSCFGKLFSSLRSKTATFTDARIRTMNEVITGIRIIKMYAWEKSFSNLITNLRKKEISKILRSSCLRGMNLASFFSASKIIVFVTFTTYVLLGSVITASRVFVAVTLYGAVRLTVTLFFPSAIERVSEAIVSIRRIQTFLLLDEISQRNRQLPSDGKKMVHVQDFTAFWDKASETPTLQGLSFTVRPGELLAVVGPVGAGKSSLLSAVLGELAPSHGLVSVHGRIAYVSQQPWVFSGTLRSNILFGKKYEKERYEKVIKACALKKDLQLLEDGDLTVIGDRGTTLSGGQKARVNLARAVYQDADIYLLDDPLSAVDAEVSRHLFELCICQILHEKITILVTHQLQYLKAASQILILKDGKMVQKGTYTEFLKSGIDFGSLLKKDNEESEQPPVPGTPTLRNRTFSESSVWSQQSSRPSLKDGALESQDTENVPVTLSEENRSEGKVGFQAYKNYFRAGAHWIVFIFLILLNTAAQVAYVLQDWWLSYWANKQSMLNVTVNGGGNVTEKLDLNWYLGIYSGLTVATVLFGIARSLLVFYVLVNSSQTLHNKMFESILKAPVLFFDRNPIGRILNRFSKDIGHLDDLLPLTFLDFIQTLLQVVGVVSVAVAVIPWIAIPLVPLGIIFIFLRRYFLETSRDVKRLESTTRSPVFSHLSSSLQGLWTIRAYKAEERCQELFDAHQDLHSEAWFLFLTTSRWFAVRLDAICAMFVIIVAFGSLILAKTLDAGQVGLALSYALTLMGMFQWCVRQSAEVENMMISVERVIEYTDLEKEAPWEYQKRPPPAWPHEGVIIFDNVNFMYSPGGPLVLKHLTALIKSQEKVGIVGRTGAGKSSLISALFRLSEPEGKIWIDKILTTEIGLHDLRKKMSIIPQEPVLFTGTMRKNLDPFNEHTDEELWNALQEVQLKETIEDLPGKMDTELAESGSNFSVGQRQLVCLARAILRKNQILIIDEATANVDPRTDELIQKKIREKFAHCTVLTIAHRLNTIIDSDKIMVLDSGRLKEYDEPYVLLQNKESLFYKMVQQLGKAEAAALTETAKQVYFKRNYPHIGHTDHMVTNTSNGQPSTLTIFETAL

[2] = ref Giustarini et al., 2012; cited from earlier work
[3] = given into the carotid artery, rats; ref Neuwelt et al., 2001; cited from earlier work
human OAT1 = molecular target: T2, human OAT1 (Homo sapiens, UniProt Q4U2R8)
T2 sequence (Q4U2R8 1-563): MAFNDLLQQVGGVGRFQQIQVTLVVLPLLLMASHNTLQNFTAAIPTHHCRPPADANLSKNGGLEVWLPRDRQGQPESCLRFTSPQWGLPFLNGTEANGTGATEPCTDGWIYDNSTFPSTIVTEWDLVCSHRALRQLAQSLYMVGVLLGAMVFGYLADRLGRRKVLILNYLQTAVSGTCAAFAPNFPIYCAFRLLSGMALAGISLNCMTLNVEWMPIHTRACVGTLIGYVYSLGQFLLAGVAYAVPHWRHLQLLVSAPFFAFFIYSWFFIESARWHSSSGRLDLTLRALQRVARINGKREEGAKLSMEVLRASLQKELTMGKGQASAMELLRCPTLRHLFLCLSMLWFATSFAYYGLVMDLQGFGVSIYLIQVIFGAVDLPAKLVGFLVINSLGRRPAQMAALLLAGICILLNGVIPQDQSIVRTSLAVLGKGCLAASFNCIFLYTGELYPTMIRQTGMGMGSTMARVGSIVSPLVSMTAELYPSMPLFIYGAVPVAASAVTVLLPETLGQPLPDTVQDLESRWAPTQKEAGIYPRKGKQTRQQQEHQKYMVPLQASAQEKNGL

human OAT3 = molecular target: T3, human OAT3 (Homo sapiens, UniProt Q8TCC7); test: 14C-NAC uptake in HEK-OAT3 cells
T3 sequence (Q8TCC7 1-542): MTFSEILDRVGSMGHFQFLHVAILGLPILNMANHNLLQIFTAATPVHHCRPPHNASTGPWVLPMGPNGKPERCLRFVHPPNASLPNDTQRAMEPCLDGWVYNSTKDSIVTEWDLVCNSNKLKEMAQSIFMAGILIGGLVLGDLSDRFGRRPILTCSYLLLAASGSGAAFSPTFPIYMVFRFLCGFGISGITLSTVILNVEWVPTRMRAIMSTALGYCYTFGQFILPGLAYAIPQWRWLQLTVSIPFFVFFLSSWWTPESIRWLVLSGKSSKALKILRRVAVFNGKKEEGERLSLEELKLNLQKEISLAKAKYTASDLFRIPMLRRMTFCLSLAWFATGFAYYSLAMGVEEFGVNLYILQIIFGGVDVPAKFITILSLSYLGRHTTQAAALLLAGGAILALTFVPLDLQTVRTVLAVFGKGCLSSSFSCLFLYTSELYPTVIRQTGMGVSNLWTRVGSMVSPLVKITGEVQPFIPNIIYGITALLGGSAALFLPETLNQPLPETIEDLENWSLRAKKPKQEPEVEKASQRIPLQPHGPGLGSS

Human MRP1 = Human MRP1 (Homo sapiens, UniProt P33527); test: Vesicular uptake assay, MRP1 membrane vesicles
[4] = assay type: in vivo, Sprague-Dawley rats
[5] = ref Borgstrom et al., 1986; cited from earlier work
[6] = NAC plasma pharmacokinetics with or without probenecid, intraperitoneal; assay type: in vivo, Sprague-Dawley rats; details: juvenile rats
HEK-EV cells = test: 14C-NAC uptake in HEK-empty vector control cells; assay type: in vitro ADME, human; details: 200 μM probenecid, 25 min, n = 3
[7] = in vitro uptake and inhibition experiments
[8] = OAT3-overexpressing cells, 25 μM NAC

Sequence of Human MRP1 (P33527 whole entry): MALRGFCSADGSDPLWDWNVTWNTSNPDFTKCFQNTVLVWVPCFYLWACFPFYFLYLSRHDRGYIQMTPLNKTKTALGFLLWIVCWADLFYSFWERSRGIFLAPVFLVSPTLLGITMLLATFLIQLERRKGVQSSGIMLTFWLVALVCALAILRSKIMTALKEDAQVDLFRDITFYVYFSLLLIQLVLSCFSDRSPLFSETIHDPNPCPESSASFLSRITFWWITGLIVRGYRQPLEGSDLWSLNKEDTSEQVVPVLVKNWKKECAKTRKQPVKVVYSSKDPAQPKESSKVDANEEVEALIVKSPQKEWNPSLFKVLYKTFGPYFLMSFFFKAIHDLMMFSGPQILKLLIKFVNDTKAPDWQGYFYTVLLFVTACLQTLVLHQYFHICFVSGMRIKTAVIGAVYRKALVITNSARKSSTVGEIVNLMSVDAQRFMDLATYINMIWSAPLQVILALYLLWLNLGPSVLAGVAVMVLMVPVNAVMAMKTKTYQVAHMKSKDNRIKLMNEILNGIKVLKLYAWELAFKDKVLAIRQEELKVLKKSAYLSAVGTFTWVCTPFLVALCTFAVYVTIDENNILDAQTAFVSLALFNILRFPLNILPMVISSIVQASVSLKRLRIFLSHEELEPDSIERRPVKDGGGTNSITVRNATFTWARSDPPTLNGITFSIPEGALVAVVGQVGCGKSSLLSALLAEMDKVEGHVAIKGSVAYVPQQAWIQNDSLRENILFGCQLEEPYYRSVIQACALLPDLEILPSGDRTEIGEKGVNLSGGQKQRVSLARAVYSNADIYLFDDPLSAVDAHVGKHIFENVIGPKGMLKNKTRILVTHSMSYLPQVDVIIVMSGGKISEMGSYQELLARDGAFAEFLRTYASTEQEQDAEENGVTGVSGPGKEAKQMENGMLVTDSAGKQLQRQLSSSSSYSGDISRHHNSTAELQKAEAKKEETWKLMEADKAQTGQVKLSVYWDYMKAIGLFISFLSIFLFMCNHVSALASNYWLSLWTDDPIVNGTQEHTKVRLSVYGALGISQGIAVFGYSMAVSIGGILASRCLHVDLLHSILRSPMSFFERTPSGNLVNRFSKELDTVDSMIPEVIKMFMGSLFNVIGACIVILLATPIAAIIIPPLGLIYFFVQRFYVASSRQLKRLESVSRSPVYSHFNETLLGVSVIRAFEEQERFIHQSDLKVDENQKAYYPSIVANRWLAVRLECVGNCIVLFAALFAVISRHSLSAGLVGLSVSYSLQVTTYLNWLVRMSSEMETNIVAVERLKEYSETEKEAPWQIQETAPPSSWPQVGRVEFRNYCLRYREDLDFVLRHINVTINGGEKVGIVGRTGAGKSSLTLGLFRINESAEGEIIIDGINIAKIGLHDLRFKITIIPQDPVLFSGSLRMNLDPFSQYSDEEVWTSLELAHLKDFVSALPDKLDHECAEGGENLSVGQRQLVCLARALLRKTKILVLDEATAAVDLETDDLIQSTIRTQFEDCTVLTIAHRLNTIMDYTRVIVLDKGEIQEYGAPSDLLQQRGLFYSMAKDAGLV

SMILES: CC(=O)N[C@@H](CS)C(N)=O
- detection in the brain ([1]; IP and oral administration, ref Offen et al., 2004): able to detect

SMILES: C[C@]12CC[C@@H]3c4ccc(O)cc4CC[C@H]3[C@@H]1CC[C@@H]2O[C@@H]1O[C@H](C(=O)O)[C@@H](O)[C@H](O)[C@H]1O [E217βG, estradiol-17β-D- glucuronide]
- ATP-dependent uptake of positive control substrate (Human MRP4; MRP4 vesicles, 0.25–100 μM, 0.5 minutes): saturable uptake

SMILES: CC(=O)N[C@@H](CS)C(=O)O [NAC, N-acetylcysteine]
- log D [2]: −5.4
- crossing of the BBB [3]: can cross the BBB
- ATP-dependent, transporter-mediated uptake of NAC vs AMP (negative control) (Human MRP4; MRP4 vesicles, 25 μM NAC): No uptake; also recorded: not statistically different
- substrate status for MRP4 (Human MRP4; membrane vesicles): not a substrate
- levels in the brain ([1]; IP administration, ref Erickson et al., 2012): low levels of NAC were measurable
- saturation of concentration-dependent NAC uptake (human OAT1; HEK-OAT1, 25 min, up to 10 mM NAC): did not reach saturation
- NAC uptake rate (human OAT1; OAT1-overexpressing cells, 25 μM NAC): 4.2 ± 0.1 pmol/mg/min
- time up to which NAC uptake is linear (human OAT1; OAT1-overexpressing cells, 25 μM NAC, latest time point measured): ≥ 42.5 min
- substrate status for OAT1 (human OAT1; [7]): substrate
- saturation of concentration-dependent NAC uptake (human OAT3; HEK-OAT3, 10 min, up to 10 mM NAC): did not reach saturation
- NAC uptake rate (human OAT3; [8]): 37.7 ± 1.9 pmol/mg/min
- time up to which NAC uptake is linear (human OAT3; [8]): at least 15 minutes
- substrate status for OAT3 (human OAT3; [7]): substrate
- ATP-dependent, transporter-mediated uptake of NAC vs AMP (negative control) (Human MRP1; MRP1 vesicles, 25 μM NAC): No uptake; also recorded: not statistically different
- substrate status for MRP1 (Human MRP1; membrane vesicles): not a substrate
- NAC brain levels at late time points ([4]; NAC and probenecid group, up to last sampling time point (8 h)): remained measurable
- NAC brain levels at late time points ([4]; NAC only group, 6 h and 8 h time points): below the limit of quantificaiton; also recorded: below limit of quantification
- renally eliminated [5]: approximately 30%
- apparent plasma clearance (CL/F) ([6]; NAC 163 mg/kg ip alone): 18.55 ± 0.483 mL/min/kg
- apparent plasma clearance (CL/F) ([6]; NAC 163 mg/kg ip in combination with probenecid 150 mg/kg ip): 11.2 ± 0.137 mL/min/kg

SMILES: CCCN(CCC)S(=O)(=O)c1ccc(C(=O)O)cc1 [probenecid]
- effect of probenecid on NAC uptake by control cells (HEK-EV cells): no difference
- decrease of NAC uptake by probenecid (human OAT3; OAT3, 200 μM probenecid pre-incubation 5 min, 10 min uptake, n = 3): 93.9%
